Test results from ChEMBL document CHEMBL3046781, “Resistance of Helicoverpa assulta (Guenée) (Lepidoptera: Noctuidae) to fenvalerate, phoxim and methomyl in China” (2009).

What was measured:
Type in all cases: functional
Helicoverpa assulta [1] = test: Insecticidal activity against sixth-instar larvae of Helicoverpa assulta FJ2 at 1.8 to 183360 mg/l after 48 hr by chi-squared analysis
Helicoverpa assulta [2] = test: Insecticidal activity against sixth-instar larvae of Helicoverpa assulta FJ1 at 1.8 to 183360 mg/l after 48 hr by chi-squared analysis
Helicoverpa assulta [3] = test: Insecticidal activity against sixth-instar larvae of Helicoverpa assulta GZ3 at 1.8 to 183360 mg/l after 48 hr by chi-squared analysis
Helicoverpa assulta [4] = test: Insecticidal activity against sixth-instar larvae of Helicoverpa assulta AH1 at 1.8 to 183360 mg/l after 48 hr by chi-squared analysis
Helicoverpa assulta [5] = test: Insecticidal activity against sixth-instar larvae of Helicoverpa assulta YN4 at 1.8 to 183360 mg/l after 48 hr by chi-squared analysis
Helicoverpa assulta [6] = test: Insecticidal activity against sixth-instar larvae of Helicoverpa assulta HB1 at 1.8 to 183360 mg/l after 48 hr by chi-squared analysis
Helicoverpa assulta [7] = test: Resistance factor, ratio of LD50 for sixth-instar larvae of Helicoverpa assulta GZ3 to LD50 for sixth-instar larvae of Helicoverpa assulta at 1.8 to 183360 mg/l
Helicoverpa assulta [8] = test: Insecticidal activity against sixth-instar larvae of Helicoverpa assulta AH3 at 1.8 to 183360 mg/l after 48 hr by chi-squared analysis
Helicoverpa assulta [9] = test: Resistance factor, ratio of LD50 for sixth-instar larvae of Helicoverpa assulta AH2 to LD50 for sixth-instar larvae of Helicoverpa assulta at 21 to 3390 mg/l
Helicoverpa assulta [10] = test: Insecticidal activity against sixth-instar larvae of Helicoverpa assulta YN7 at 21 to 3390 mg/l after 48 hr by chi-squared analysis
Helicoverpa assulta [11] = test: Insecticidal activity against sixth-instar larvae of Helicoverpa assulta GZ5 at 21 to 3390 mg/l after 48 hr by chi-squared analysis
Helicoverpa assulta [12] = test: Resistance factor, ratio of LD50 for sixth-instar larvae of Helicoverpa assulta YN7 to LD50 for sixth-instar larvae of Helicoverpa assulta at 21 to 3390 mg/l
Helicoverpa assulta [13] = test: Insecticidal activity against sixth-instar larvae of Helicoverpa assulta HN1 at 21 to 3390 mg/l after 48 hr by chi-squared analysis
Helicoverpa assulta [14] = test: Insecticidal activity against sixth-instar larvae of Helicoverpa assulta SD1 at 21 to 3390 mg/l after 48 hr by chi-squared analysis
Helicoverpa assulta [15] = test: Insecticidal activity against sixth-instar larvae of Helicoverpa assulta GZ3 at 21 to 3390 mg/l after 48 hr by chi-squared analysis
Helicoverpa assulta [16] = test: Resistance factor, ratio of LD50 for sixth-instar larvae of Helicoverpa assulta YN4 to LD50 for sixth-instar larvae of Helicoverpa assulta at 21 to 3390 mg/l
Helicoverpa assulta [17] = test: Resistance factor, ratio of LD50 for sixth-instar larvae of Helicoverpa assulta YN1 to LD50 for sixth-instar larvae of Helicoverpa assulta at 21 to 3390 mg/l
Helicoverpa assulta [18] = test: Insecticidal activity against sixth-instar larvae of Helicoverpa assulta YN4 at 21 to 3390 mg/l after 48 hr by chi-squared analysis
Helicoverpa assulta [19] = test: Insecticidal activity against sixth-instar larvae of Helicoverpa assulta YN2 at 21 to 3390 mg/l after 48 hr by chi-squared analysis
Helicoverpa assulta [20] = test: Insecticidal activity against sixth-instar larvae of Helicoverpa assulta FJ3 at 21 to 3390 mg/l after 48 hr by chi-squared analysis
Helicoverpa assulta [21] = test: Insecticidal activity against sixth-instar larvae of Helicoverpa assulta YN8 at 21 to 3390 mg/l after 48 hr by chi-squared analysis
Helicoverpa assulta [22] = test: Resistance factor, ratio of LD50 for sixth-instar larvae of Helicoverpa assulta YN5 to LD50 for sixth-instar larvae of Helicoverpa assulta at 21 to 3390 mg/l
Helicoverpa assulta [23] = test: Insecticidal activity against sixth-instar larvae of Helicoverpa assulta HN2 at 21 to 3390 mg/l after 48 hr by chi-squared analysis
Helicoverpa assulta [24] = test: Insecticidal activity against sixth-instar larvae of Helicoverpa assulta GZ4 at 21 to 3390 mg/l after 48 hr by chi-squared analysis
Helicoverpa assulta [25] = test: Resistance factor, ratio of LD50 for sixth-instar larvae of Helicoverpa assulta AH1 to LD50 for sixth-instar larvae of Helicoverpa assulta at 21 to 3390 mg/l
Helicoverpa assulta [26] = test: Resistance factor, ratio of LD50 for sixth-instar larvae of Helicoverpa assulta YN2 to LD50 for sixth-instar larvae of Helicoverpa assulta at 39 to 12630 mg/l
Helicoverpa assulta [27] = test: Insecticidal activity against sixth-instar larvae of Helicoverpa assulta GZ3 at 39 to 12630 mg/l after 48 hr by chi-squared analysis
Helicoverpa assulta [28] = test: Resistance factor, ratio of LD50 for sixth-instar larvae of Helicoverpa assulta GZ3 to LD50 for sixth-instar larvae of Helicoverpa assulta at 39 to 12630 mg/l
Helicoverpa assulta [29] = test: Resistance factor, ratio of LD50 for sixth-instar larvae of Helicoverpa assulta GZ5 to LD50 for sixth-instar larvae of Helicoverpa assulta at 39 to 12630 mg/l
Helicoverpa assulta [30] = test: Insecticidal activity against sixth-instar larvae of Helicoverpa assulta AH3 at 39 to 12630 mg/l after 48 hr by chi-squared analysis
Helicoverpa assulta [31] = test: Insecticidal activity against sixth-instar larvae of Helicoverpa assulta YN3 at 39 to 12630 mg/l after 48 hr by chi-squared analysis
Helicoverpa assulta [32] = test: Resistance factor, ratio of LD50 for sixth-instar larvae of Helicoverpa assulta HN2 to LD50 for sixth-instar larvae of Helicoverpa assulta at 39 to 12630 mg/l
Helicoverpa assulta [33] = test: Resistance factor, ratio of LD50 for sixth-instar larvae of Helicoverpa assulta GZ2 to LD50 for sixth-instar larvae of Helicoverpa assulta at 39 to 12630 mg/l
Helicoverpa assulta [34] = test: Insecticidal activity against sixth-instar larvae of Helicoverpa assulta YN7 at 39 to 12630 mg/l after 48 hr by chi-squared analysis
Helicoverpa assulta [35] = test: Insecticidal activity against sixth-instar larvae of Helicoverpa assulta YN6 at 39 to 12630 mg/l after 48 hr by chi-squared analysis

Compound: CC(C)C(C(=O)OC(C#N)c1cccc(Oc2ccccc2)c1)c1ccc(Cl)cc1 (stereo not drawn) [FENVALERATE]
- LD90 (Helicoverpa assulta [1]): 4.91 µg/g
- LD50 (Helicoverpa assulta [1]; Helicoverpa assulta, FJ2, 48 h): 2.08 mg/kg
- LD90 (Helicoverpa assulta [2]): 5.67 µg/g
- LD50 (Helicoverpa assulta [2]; Helicoverpa assulta, FJ1, 48 h): 1.46 mg/kg
- LD90 (Helicoverpa assulta [3]): 725 µg/g
- LD50 (Helicoverpa assulta [3]; Helicoverpa assulta, GZ3, 48 h): 133 mg/kg
- LD90 (Helicoverpa assulta [4]): 833 µg/g
- LD50 (Helicoverpa assulta [4]; Helicoverpa assulta, AH1, 48 h): 333 mg/kg
- LD90 (Helicoverpa assulta [5]): 4847 µg/g
- LD50 (Helicoverpa assulta [5]; Helicoverpa assulta, YN4, 48 h): 1500 mg/kg
- LD90 (Helicoverpa assulta [6]): 7.34 µg/g
- LD50 (Helicoverpa assulta [6]; Helicoverpa assulta, HB1, 48 h): 0.944 mg/kg
- Ratio (Helicoverpa assulta [7]): 824
- LD90 (Helicoverpa assulta [8]): 470 µg/g
- LD50 (Helicoverpa assulta [8]; Helicoverpa assulta, AH3, 48 h): 251 mg/kg

Compound: CNC(=O)ON=C(C)SC [METHOMYL]
- Ratio (Helicoverpa assulta [9]): 15.3
- LD90 (Helicoverpa assulta [10]): 143 µg/g
- LD50 (Helicoverpa assulta [10]; Helicoverpa assulta, YN7, 48 h): 39 mg/kg
- LD90 (Helicoverpa assulta [11]): 64.6 µg/g
- LD50 (Helicoverpa assulta [11]; Helicoverpa assulta, GZ5, 48 h): 21 mg/kg
- Ratio (Helicoverpa assulta [12]): 27
- LD90 (Helicoverpa assulta [13]): 34 µg/g
- LD50 (Helicoverpa assulta [13]; Helicoverpa assulta, HN1, 48 h): 6.48 mg/kg
- LD90 (Helicoverpa assulta [14]): 19.5 µg/g
- LD50 (Helicoverpa assulta [14]; Helicoverpa assulta, SD1, 48 h): 5.68 mg/kg
- LD90 (Helicoverpa assulta [15]): 66.7 µg/g
- LD50 (Helicoverpa assulta [15]; Helicoverpa assulta, GZ3, 48 h): 20.8 mg/kg
- Ratio (Helicoverpa assulta [16]): 11.5
- Ratio (Helicoverpa assulta [17]): 31.6
- LD90 (Helicoverpa assulta [18]): 62.2 µg/g
- LD50 (Helicoverpa assulta [18]; Helicoverpa assulta, YN4, 48 h): 16.7 mg/kg
- LD90 (Helicoverpa assulta [19]): 84.1 µg/g
- LD50 (Helicoverpa assulta [19]; Helicoverpa assulta, YN2, 48 h): 26.6 mg/kg
- LD90 (Helicoverpa assulta [20]): 137 µg/g
- LD50 (Helicoverpa assulta [20]; Helicoverpa assulta, FJ3, 48 h): 23.6 mg/kg
- LD90 (Helicoverpa assulta [21]): 185 µg/g
- LD50 (Helicoverpa assulta [21]; Helicoverpa assulta, YN8, 48 h): 33.3 mg/kg
- Ratio (Helicoverpa assulta [22]): 9.87
- LD90 (Helicoverpa assulta [23]): 24.2 µg/g
- LD50 (Helicoverpa assulta [23]; Helicoverpa assulta, HN2, 48 h): 4.24 mg/kg
- LD90 (Helicoverpa assulta [24]): 55.5 µg/g
- LD50 (Helicoverpa assulta [24]; Helicoverpa assulta, GZ4, 48 h): 16.7 mg/kg
- Ratio (Helicoverpa assulta [25]): 37.1

Compound: CCOP(=S)(OCC)O/N=C(\C#N)c1ccccc1 [PHOXIM]
- Ratio (Helicoverpa assulta [26]): 14.9
- LD90 (Helicoverpa assulta [27]): 65.3 µg/g
- LD50 (Helicoverpa assulta [27]; Helicoverpa assulta, GZ3, 48 h): 20.9 mg/kg
- Ratio (Helicoverpa assulta [28]): 8.94
- Ratio (Helicoverpa assulta [29]): 7.1
- LD90 (Helicoverpa assulta [30]): 181 µg/g
- LD50 (Helicoverpa assulta [30]; Helicoverpa assulta, AH3, 48 h): 33.3 mg/kg
- LD90 (Helicoverpa assulta [31]): 56.4 µg/g
- LD50 (Helicoverpa assulta [31]; Helicoverpa assulta, YN3, 48 h): 29.2 mg/kg
- Ratio (Helicoverpa assulta [32]): 3.51
- Ratio (Helicoverpa assulta [33]): 10.8
- LD90 (Helicoverpa assulta [34]): 131 µg/g
- LD50 (Helicoverpa assulta [34]; Helicoverpa assulta, YN7, 48 h): 41.8 mg/kg
- LD90 (Helicoverpa assulta [35]): 72 µg/g
- LD50 (Helicoverpa assulta [35]; Helicoverpa assulta, YN6, 48 h): 21.3 mg/kg
